Reference: article PMC2810227, “3-O-Methylfunicone, a Selective Inhibitor of Mammalian Y-Family DNA Polymerases from an Australian Sea Salt Fungal Strain” (Marine Drugs, 2009)

Key:
[1] = biological target: T1, pol α from calf thymus (Bos taurus, UniProt A0AAA9TD94); assay: DNA polymerase assay, pol α; format: biochemical; settings: 100 μM
T1 construct: Pol α was purified from calf thymus; from tissue; host or cells: calf thymus
Text: (§1) Pol α was purified from calf thymus by immuno-affinity column chromatography, as described by Tamai et al.. Recombinant rat pol β was purified from E. coli JMpβ5, as described by Date et al.. The human pol γ catalytic gene was cloned into pFastBac. Histidine-tagged enzyme was expressed using the BAC-TO-BAC HT Baculovirus Expression System according to the supplier’s manual (Life Technologies, MD, USA) and purified using ProBoundresin (Invitrogen Japan, Tokyo, Japan). Human pols δ and ɛ were purified by nuclear fractionation of human peripheral blood cancer cells (Molt-4) using the second subunit of pols δ and ɛ-conjugated affinity column chromatography, respectively. A truncated form of human pol η (residues 1–511) tagged with His6 at its C-terminal was expressed in E. coli cells and purified as described by Kusumoto et al.. A recombinant mouse pol ι tagged with His6 at its C-terminal was expressed and purified by Ni-NTA column chromatography as described elsewhere (Masutani et al., in preparation). […]
(§2) The compounds were dissolved in distilled dimethyl sulfoxide (DMSO) at various concentrations and sonicated for 30 sec. […] Activity without the inhibitor was considered 100%, and the remaining activity at each concentration of the inhibitor was determined relative to this value. […]

[2] = biological target: T2, human pol ɛ (Homo sapiens, UniProt Q07864); assay: DNA polymerase assay, pol ɛ; format: biochemical; settings: 100 μM
T2 construct: purified by nuclear fractionation of human peripheral blood cancer cells (Molt-4); endogenous in cells; host or cells: Molt-4
T2 sequence (Q07864 whole entry): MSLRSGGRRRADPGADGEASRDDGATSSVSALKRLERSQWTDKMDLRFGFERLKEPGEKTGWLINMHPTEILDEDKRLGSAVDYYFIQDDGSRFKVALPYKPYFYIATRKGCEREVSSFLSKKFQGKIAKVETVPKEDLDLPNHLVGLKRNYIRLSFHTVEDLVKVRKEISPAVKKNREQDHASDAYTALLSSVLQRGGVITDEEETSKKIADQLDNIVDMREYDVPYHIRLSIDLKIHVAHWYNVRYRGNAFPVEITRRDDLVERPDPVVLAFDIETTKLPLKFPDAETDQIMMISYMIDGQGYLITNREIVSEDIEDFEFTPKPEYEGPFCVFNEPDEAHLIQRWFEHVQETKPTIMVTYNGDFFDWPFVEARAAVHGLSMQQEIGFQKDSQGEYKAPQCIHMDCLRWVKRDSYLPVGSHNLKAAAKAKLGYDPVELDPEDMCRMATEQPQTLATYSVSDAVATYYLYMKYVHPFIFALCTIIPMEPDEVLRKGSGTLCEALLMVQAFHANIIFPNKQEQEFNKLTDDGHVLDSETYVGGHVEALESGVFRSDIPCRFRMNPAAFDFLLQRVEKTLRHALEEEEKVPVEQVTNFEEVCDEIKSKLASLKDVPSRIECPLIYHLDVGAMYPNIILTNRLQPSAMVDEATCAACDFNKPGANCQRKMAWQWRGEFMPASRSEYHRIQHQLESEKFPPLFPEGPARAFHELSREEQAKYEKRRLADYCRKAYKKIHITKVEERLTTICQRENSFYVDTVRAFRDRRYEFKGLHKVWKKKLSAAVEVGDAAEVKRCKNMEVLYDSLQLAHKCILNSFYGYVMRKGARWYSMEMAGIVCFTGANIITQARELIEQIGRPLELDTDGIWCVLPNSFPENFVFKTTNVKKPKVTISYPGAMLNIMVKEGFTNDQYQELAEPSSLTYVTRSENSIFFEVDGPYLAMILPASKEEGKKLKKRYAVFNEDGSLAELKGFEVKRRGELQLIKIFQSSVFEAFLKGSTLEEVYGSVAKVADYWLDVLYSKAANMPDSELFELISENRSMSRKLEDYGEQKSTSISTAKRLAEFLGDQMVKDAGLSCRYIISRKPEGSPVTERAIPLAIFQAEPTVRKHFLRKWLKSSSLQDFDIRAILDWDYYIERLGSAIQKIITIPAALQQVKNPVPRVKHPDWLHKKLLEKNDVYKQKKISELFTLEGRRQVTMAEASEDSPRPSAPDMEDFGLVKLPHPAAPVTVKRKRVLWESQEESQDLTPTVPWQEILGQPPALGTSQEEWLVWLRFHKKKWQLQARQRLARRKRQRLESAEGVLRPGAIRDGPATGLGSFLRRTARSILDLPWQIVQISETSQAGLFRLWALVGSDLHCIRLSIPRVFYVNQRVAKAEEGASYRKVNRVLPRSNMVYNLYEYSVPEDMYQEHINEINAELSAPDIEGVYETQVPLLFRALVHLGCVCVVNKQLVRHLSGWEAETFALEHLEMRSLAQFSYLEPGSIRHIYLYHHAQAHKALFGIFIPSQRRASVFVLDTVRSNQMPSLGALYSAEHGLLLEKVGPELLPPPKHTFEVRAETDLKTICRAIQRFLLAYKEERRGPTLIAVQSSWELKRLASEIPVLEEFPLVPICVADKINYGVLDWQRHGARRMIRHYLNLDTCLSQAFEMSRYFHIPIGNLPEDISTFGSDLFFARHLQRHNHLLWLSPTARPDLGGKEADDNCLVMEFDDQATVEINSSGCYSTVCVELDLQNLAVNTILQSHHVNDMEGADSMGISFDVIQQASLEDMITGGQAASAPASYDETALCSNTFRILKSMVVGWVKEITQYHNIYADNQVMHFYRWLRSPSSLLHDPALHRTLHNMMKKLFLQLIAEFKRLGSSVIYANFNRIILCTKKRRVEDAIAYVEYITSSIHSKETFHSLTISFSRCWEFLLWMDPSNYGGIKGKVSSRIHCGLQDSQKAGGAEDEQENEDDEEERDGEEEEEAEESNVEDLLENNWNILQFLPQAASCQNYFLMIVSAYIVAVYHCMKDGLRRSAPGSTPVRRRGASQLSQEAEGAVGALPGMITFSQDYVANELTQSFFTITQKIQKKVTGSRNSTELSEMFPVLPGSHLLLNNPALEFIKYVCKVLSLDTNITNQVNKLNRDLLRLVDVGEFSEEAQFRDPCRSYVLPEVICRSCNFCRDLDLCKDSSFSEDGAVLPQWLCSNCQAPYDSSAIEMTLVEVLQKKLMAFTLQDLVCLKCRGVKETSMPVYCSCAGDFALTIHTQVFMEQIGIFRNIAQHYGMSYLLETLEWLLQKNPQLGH
Text: as §1, §2

[3] = system: UV-treated HeLa cells; assay: UV-treated clonogenic assay; format: cell-based, human; settings: 10 J/m^2 UV
Protocol: Figure 5. (A) Human cancer cell growth inhibition dose-response curves of 3-O-methyl-funicone (1). Various concentrations (0 to 150 μM) of compound 1 were incubated with human colon carcinoma (HCT116) cells (circle) and human cervix carcinoma (HeLa) cells (square) for 24 h. Rate of cell growth was determined by MTT assay as described in the Experimental section. Data are shown as the means ± SEM of five independent experiments. (B) Clonogenic survival of UV-treated HeLa cells by compound 1. Various concentrations (0 to 100 μM) of compound 1 were incubated with 10 J/m^2 UV-treated (closed circle) or untreated (open circle) HeLa cells. After 7 days, the number of colonies in each treatment group was counted. Values are the means ± SEM of two independent experiments.
For clonogenic assay, 600 cells of HeLa were seeded on 10-cm plates and allowed to grow for 24 h before 10 J/m^2 UV irradiation treatment. The cells were then treated with various concentrations of compound 1 for 24 h. The cells were then washed with PBS and fresh medium was added for an additional 7-day incubation in a humidified 10% CO2 incubator at 37 °C. […] The number of colonies in each treatment group was counted, and the cell survival data were presented as percentage of the colony numbers of treated/untreated cells.

[4] = biological target: T3, human pol λ (Homo sapiens, UniProt Q9UGP5); assay: DNA polymerase assay, pol λ; format: biochemical; settings: 100 μM
T3 construct: His; made in house
T3 sequence (Q9UGP5 whole entry): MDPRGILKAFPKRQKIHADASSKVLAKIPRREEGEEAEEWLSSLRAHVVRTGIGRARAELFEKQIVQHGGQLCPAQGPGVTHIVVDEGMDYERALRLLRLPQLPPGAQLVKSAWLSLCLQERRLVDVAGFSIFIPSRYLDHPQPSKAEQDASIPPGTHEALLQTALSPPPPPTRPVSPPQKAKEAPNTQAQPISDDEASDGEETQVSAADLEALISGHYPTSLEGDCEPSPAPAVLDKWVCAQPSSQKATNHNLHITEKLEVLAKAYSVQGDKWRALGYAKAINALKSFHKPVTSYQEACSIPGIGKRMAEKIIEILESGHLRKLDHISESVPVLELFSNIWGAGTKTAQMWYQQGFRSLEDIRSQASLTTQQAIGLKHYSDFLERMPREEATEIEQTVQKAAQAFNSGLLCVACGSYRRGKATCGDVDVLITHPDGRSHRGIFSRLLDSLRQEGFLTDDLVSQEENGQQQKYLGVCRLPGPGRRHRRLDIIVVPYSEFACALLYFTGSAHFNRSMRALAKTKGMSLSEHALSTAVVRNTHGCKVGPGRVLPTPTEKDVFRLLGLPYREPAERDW
Text: as §1, §2

[5] = biological target: T4, T4 polynucleotide kinase (Enterobacteria phage T4, UniProt P06855); assay: T4 polynucleotide kinase assay; format: biochemical; settings: 100 μM
T4 construct: purchased Takara Bio (Tokyo, Japan)
T4 sequence (P06855 whole entry): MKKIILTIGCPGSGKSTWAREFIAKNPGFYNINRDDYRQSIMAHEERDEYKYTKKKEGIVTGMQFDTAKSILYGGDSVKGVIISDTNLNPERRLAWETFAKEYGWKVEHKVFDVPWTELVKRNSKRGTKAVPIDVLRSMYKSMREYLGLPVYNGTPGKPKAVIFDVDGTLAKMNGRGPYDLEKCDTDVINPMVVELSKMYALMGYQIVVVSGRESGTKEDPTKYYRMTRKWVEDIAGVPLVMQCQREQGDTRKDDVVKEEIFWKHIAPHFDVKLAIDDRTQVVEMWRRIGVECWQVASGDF
Text: as §1, with “al..” for “al.. A recombinant mouse pol ι tagged with His6 at its C-terminal was expressed and purified by Ni-NTA column chromatography as described elsewhere (Masutani et al., in preparation).”
(§3) The activities of calf primase of pol α, human telomerase, T7 RNA polymerase, mouse IMP dehydrogenase, human DNA topoisomerases I and II, T4 polynucleotide kinase and bovine DNase I were measured in standard assays according to the manufacturer’s specifications, as described by Tamiya-Koizumi et al., Oda et al., Nakayama et al., Mizushina et al., Ishimaru et al., Soltis et al. and Lu et al., respectively.

[6] = biological target: T5, human pol δ (Homo sapiens, UniProt P28340); assay: DNA polymerase assay, pol δ; format: biochemical; settings: 100 μM
T5 construct: purified by nuclear fractionation of human peripheral blood cancer cells (Molt-4); endogenous in cells; host or cells: Molt-4
Text: as §1, §2

[7] = biological target: T6, T7 RNA polymerase (Escherichia phage T7, UniProt P00573); assay: T7 RNA polymerase assay; format: biochemical; settings: 100 μM
T6 construct: purchased Takara Bio (Tokyo, Japan)
T6 sequence (P00573 whole entry): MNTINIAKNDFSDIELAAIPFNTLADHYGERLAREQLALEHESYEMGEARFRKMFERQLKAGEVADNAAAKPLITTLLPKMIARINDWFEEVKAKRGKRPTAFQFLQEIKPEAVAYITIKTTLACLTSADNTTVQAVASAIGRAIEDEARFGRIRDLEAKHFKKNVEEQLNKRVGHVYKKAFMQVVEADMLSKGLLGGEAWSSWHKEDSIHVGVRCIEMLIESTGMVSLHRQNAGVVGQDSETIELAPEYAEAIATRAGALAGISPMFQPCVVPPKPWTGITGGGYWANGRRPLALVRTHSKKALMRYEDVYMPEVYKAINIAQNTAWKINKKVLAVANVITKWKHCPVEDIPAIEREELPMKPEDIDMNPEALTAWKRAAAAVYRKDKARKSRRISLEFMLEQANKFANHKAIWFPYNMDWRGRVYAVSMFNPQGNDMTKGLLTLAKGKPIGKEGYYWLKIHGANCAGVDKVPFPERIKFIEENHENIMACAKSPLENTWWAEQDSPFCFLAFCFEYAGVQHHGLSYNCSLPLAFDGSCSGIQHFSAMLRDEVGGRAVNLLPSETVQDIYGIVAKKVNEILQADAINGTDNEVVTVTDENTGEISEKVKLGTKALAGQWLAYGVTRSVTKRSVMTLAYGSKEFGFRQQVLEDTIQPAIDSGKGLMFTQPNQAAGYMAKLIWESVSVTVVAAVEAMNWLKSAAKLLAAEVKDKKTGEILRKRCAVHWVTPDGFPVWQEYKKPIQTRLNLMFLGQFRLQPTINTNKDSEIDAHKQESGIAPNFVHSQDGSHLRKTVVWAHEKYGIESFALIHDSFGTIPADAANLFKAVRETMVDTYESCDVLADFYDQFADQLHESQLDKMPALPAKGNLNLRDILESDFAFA
Text: as §1, with “al..” for “al.. A recombinant mouse pol ι tagged with His6 at its C-terminal was expressed and purified by Ni-NTA column chromatography as described elsewhere (Masutani et al., in preparation).”
as §3

[8] = system: HUVEC (human umbilical vein endothelial cells); assay: Proliferation and growth of normal cells, HUVEC; format: cell-based; settings: data not shown
[9] = biological target: T7, human pol γ (Homo sapiens, UniProt P54098); assay: DNA polymerase assay, pol γ; format: biochemical; settings: 100 μM
T7 construct: His; made in house
Text: as §1, §2

[10] = system: cauliflower pol α; assay: DNA polymerase assay, plant pol α; format: biochemical; settings: 100 μM
Text: as §1, §2

## C/C=C/c1occ(C(=O)c2c(OC)cc(OC)cc2C(=O)OC)c(=O)c1OC [compound 1, 3-O-methylfunicone]
[1]
  effect on pol α activity: hardly influenced
[2]
  effect on pol ɛ activity: hardly influenced
[3]; 100 μM, HeLa, 7 days
  inhibiting clonogenic survival effect on UV exposed cells versus non-exposed cells: 4.3 fold
[3]; 0 to 100 μM
  HeLa cell UV-sensitivity: significantly enhanced
[4]
  effect on pol λ activity: hardly influenced
[5]
  effect on T4 polynucleotide kinase activity: did not influence
[6]
  effect on pol δ activity: hardly influenced
[7]
  effect on T7 RNA polymerase activity: did not influence
[8]
  effect on cell proliferation and growth: did not influence
[9]
  effect on pol γ activity: hardly influenced
[10]
  effect on cauliflower pol α activity: no effect
